Results: patent US20140079836A1, “METHODS AND COMPOSITIONS FOR ALTERING HEALTH, WELLBEING, AND LIFESPAN” (LifeSpan Extension, LLC, priority 2008, published 2014)

Tested on: entire human genome (gene expression profile)
Assay: Agilent whole human genome array, skin fibroblasts AG07999, antioxidant with or without UV
Format: cell-based
Experimental: Cell cultures: A human skin fibroblast cell culture was obtained through the Coriell Cell Repository from the National Institute on Aging Cell Repository. […] Culture media: Cells were grown in Minimal Essential Medium supplemented with 10% fetal bovine serum, 2 mM L-glutamine, 2 mM Glutamax I. […] All cultures were incubated at 37° C. with 5% CO2 in a humidified chamber. […] On Day 5 after 24 hours of exposure to test conditions, the cells were isolated and the RNA isolated using the RT^2q PCR-grade RNA isolation kit (Superarray Bioscience Corporation). […] Analysis of Agilent Whole Human Genome Arrays: RNA taken from both samples was sent to Cogenics, Inc. Morrisville, N.C. Cogenics, Inc. is a leading, state-of-the-art, microarray service provider that facilitates and accelerates transcriptome profiling and gene discovery processes for industrial and academic researchers. Cogenics' procedure for processing samples is as follows: RNA samples are received and analyzed by Cogenics, Inc. using rigorous standardized procedures that are designed to ensure quality and chain of custody. Each sample undergoes a thorough quality analysis using an Agilent Bioanalyzer microfluidics device, and is precisely quantified using a Nanodrop-1000 spectro-photometer. When the Agilent Oligonucleotide Microarray Platform is utilized, samples are fluorescently labeled using the Agilent Low-Input Linear Amplification Kit. Upon completion of this process, the labeled cRNA products are assessed using the same processes described above. These labeled samples are then fragmented and hybridized to oligonucleotide microarrays. The microarrays are washed and then scanned using an Agilent DNA Microarray Scanner with Sure Scan technology. Data is extracted from the images produced by the scanner using Agilent's Feature Extraction software. At this point, the scanned image is visually inspected for defects, and the extracted data is statistically analyzed to ensure quality of the assay. Extracted data and images can be loaded into Rosetta Resolver Gene Expression Data Analysis System for in-depth analysis, both from a quality standpoint, as well as to develop biological understanding. […] A table was generated and provided as a tab-delimited text file. This file will contain the log ratio, fold-change, log ratio p-value, etc. for every transcript measured by the microarray. Using Rosetta Resolver, a single ratio comparison was compiled based on the results of the two fluorophore reversal hybridization performed in the context of this project. The ratios were calculated such that the Tx sample was in the numerator and the UnTx sample was in the denominator. A table was generated, saved as tab-delimited text files, and is provided on the DVD that accompanied this report in the “Objective—1” subdirectory or the “Data_Analysis” directory. These files contain the log ratio, fold-change, log ratio p-value, etc. for every transcript present on the microarray. […] A table for will be generated and provided as a tab-delimited text file. The file will contain the log ratio, fold-change, log ratio p-value, etc. for only the differentially expressed transcripts within the context of the comparison. […] These criteria were applied to the comparison made in Objective 1. A table was generated, saved as tab-delimited text files, and is provided on the DVD that accompanied this report in the “Objective—1” subdirectory or the “Data_Analysis” directory. […] Cell cultures: A human skin fibroblast cell culture (or cultures) will be obtained through the Coriell Cell Repository from the National Institute on Aging Cell Repository. […] Culture media: Cells will be grown in Minimal Essential Medium supplemented with 10% fetal bovine serum, 2 mM L-glutamine, 2 mM Glutamax I.

COC1=C(OC)C(=O)C(CCCCCCCCCCO)=C(C)C1=O [Idebenone, 6-(10-hydroxydecyl)-2,3-dimethoxy-5-methyl-1,4-benzoquin-one]
1.0: TPO Expression (Idebenone + UVB) | AKT1 Expression (Idebenone Alone) | APOE Expression (Idebenone Alone) | ARG2 Expression (Idebenone Alone) | CCNA1 Expression (Idebenone Alone) | CYBA Expression (Idebenone Alone) | DLG4 Expression (Idebenone Alone) | DNCL1 Expression (Idebenone Alone) | DND1 Expression (Idebenone Alone) | DUOX1 Expression (Idebenone Alone) | GCH1 Expression (Idebenone Alone) | GCHFR Expression (Idebenone Alone) | GPX1 Expression (Idebenone Alone) | GPX2 Expression (Idebenone Alone) | GPX3 Expression (Idebenone Alone) | GPX5 Expression (Idebenone Alone) | GRIN2D Expression (Idebenone Alone) | HSP90AB1 Expression (Idebenone Alone) | JUN Expression (Idebenone Alone) | MBL2 Expression (Idebenone Alone) | MPO Expression (Idebenone Alone) | MSRA Expression (Idebenone Alone) | MYB Expression (Idebenone Alone) | NME5 Expression (Idebenone Alone) | NOS2A Expression (Idebenone Alone) | NOS3 Expression (Idebenone Alone) | NOSIP Expression (Idebenone Alone) | NOX5 Expression (Idebenone Alone) | OXR1 Expression (Idebenone Alone) | PNKP Expression (Idebenone Alone) | PP3CA Expression (Idebenone Alone) | PREX1 Expression (Idebenone Alone) | PRG3 Expression (Idebenone Alone) | PRKCA Expression (Idebenone Alone) | SELS Expression (Idebenone Alone) | TPO Expression (Idebenone Alone) | TTN Expression (Idebenone Alone) | UNR Expression (Idebenone Alone) | TPP1 Expression (Human Genome Expression Values) (agent + UVB) | TRF2 Expression (Human Genome Expression Values) (agent Alone)
−1.7: NCF1 Expression (Idebenone Alone) | VEGFA Expression (Idebenone Alone)
−1.6: TXNRD2 Expression (Idebenone + UVB) | EPX Expression (Idebenone Alone)
1.1: TFAM Expression (Idebenone + UVB) | DDAH2 Expression (Idebenone Alone) | GLRX2 Expression (Idebenone Alone) | IL10 Expression (Idebenone Alone) | KRT1 Expression (Idebenone Alone) | LPO Expression (Idebenone Alone) | NCF2 Expression (Idebenone Alone) | NOSTRIN Expression (Idebenone Alone) | PKAR1B Expression (Idebenone Alone) | SCARA3 Expression (Idebenone Alone) | TIN2 Expression (Human Genome Expression Values) (agent + UVB) | TNKS2 Expression (Human Genome Expression Values) (agent + UVB) | TERT Expression (Human Genome Expression Values) (agent Alone) | TIN2 Expression (Human Genome Expression Values) (agent Alone) | TNKS Expression (Human Genome Expression Values) (agent Alone)
−1.2: GLA Expression (Idebenone Alone) | IL8 Expression (Idebenone Alone) | PGC Expression (Idebenone Alone) | SOD2 Expression (Idebenone Alone) | TFAM Expression (Idebenone Alone)
1.5: MTL5 Expression (Idebenone Alone) | SRXN1 Expression (Idebenone Alone)
−1.4: DUSP1 Expression (Idebenone Alone)
1.4: UNR Expression (Idebenone + UVB) | CDKN1A Expression (Idebenone Alone) | SCRT2 Expression (Idebenone Alone)
1.9: NOS1 Expression (Idebenone Alone)
1.3: TTN Expression (Idebenone + UVB) | GPR156 Expression (Idebenone Alone) | NUDT1 Expression (Idebenone Alone) | TNKS Expression (Human Genome Expression Values) (agent + UVB) | TRF1 Expression (Human Genome Expression Values) (agent + UVB)
1.8: EGFR Expression (Idebenone Alone)
−1.1: TROAP Expression (Idebenone + UVB) | ALOX12 Expression (Idebenone Alone) | CAMK1 Expression (Idebenone Alone) | DUOX2 Expression (Idebenone Alone) | GSS Expression (Idebenone Alone) | MT3 Expression (Idebenone Alone) | PRDX6 Expression (Idebenone Alone) | RAP1 Expression (Human Genome Expression Values) (agent + UVB) | TRF2 Expression (Human Genome Expression Values) (agent + UVB) | RAP1 Expression (Human Genome Expression Values) (agent Alone) | TPP1 Expression (Human Genome Expression Values) (agent Alone)
−1.0: ATOX1 Expression (Idebenone Alone) | CCS Expression (Idebenone Alone) | FOXM1 Expression (Idebenone Alone) | INS Expression (Idebenone Alone) | NRF1 Expression (Idebenone Alone) | PRNP Expression (Idebenone Alone) | SIRT2 Expression (Idebenone Alone) | SOD1 Expression (Idebenone Alone) | TROAP Expression (Idebenone Alone) | POT1 Expression (Human Genome Expression Values) (agent Alone) | TNKS2 Expression (Human Genome Expression Values) (agent Alone) | TRF1 Expression (Human Genome Expression Values) (agent Alone)
1.2: CAT Expression (Idebenone Alone) | CYGB Expression (Idebenone Alone) | RNF7 Expression (Idebenone Alone) | SEPP1 Expression (Idebenone Alone) | SGK2 Expression (Idebenone Alone) | POT1 Expression (Human Genome Expression Values) (agent + UVB)
−1.3: VEGFA Expression (Idebenone + UVB) | GPX4 Expression (Idebenone Alone) | NQO1 Expression (Idebenone Alone) | PRDX2 Expression (Idebenone Alone) | SOD3 Expression (Idebenone Alone) | TXNRD2 Expression (Idebenone Alone) | TERT Expression (Human Genome Expression Values) (agent + UVB)
